Assays:
[1] = Toxicity in treated infected mice (survival, spleen weight, serum biochemistry); assay type: in vivo; conditions: 30 μmol per kg per day × 28 days
Experimental: The survival of BALB/c mice infected with L. amazonensis untreated and treated during 28 days with the daily dose of 30 μmol kg^−1 with meglumine antimoniate, miltefosine and 10e (LASSBio-1736) was analyzed. Animal mortality was not observed for the groups treated with 10e and miltefosine, while 20% of death was identified from the 25th day of treatment with meglumine antimoniate (Fig. 11). After the end of treatment, the animal's toxicity was investigated looking for any alterations on spleen weight and on alanine aminotransferase (ALT), aspartate aminotransferase (AST), creatinine (CREA) and urea serum levels.
This study (protocol number 2013.02) was approved by the Ethics Committee for Animal Experimentation of the Federal University of Alagoas (Brazil). All animals received humane care in compliance with the ‘Principles of laboratory animal care’ formulated by the National Society for Medical Research and the ‘Guide for the care and use of laboratory animals’ prepared by the National Academy of Sciences (Washington, DC). Then, 1 × 10^5 stationary promastigotes (5 days of culture in Schneider's medium) of L. amazonensis were inoculated subcutaneously into the right ear dermis of 6 week-old female BALB/c mice weighing ca. 20 g. and later treated with 10e (i.p.), miltefosine (p.o.) or meglumine antimoniate (i.p.) at 30 μmol kg^−1 × 28 days. The vehicle to solubilize 10e (LASSBio-1736) and standard drugs was Tween 20 (50 μL) and sterile water for injection, which was also administrated by i.p. route in two controls groups (non-infected control and infected control). The lesion size was measured using a paquimeter.[32] The parasite loads of infected ears and draining lymph nodes were determined using a quantitative limiting-dilution assay.[33] Toxicity was also evaluated due to alterations on spleen weight and by biochemistry dosages in plasma, performed according to the manufacturer's instructions (Doles, BRA). Data obtained from experiments were expressed as the mean ± S.E.M. and statistical differences between the treated and the vehicle groups of experiments were evaluated by ANOVA and Dunnett hoc tests.

[2] = Plasma stability (UPLC-MS/MS recovery); assay type: in vitro ADME; conditions: 4 hours, 37 °C, rat plasma diluted 1:1 with PBS pH 7.4
Experimental: To investigate the potential plasma instability of the carbamoyl-N-arylimine-urea subunit, designed as a new peptide mimetic framework, compound 10e (LASSBio-1736) was selected to investigate its plasma stability,[21,22] previously to the evaluation of its in vivo leishmanicidal effect. Quantitation of 10e (LASSBio-1736), benzocaine standard (positive control; it means a substrate drug for plasma hydrolysis) and ketoconazole (internal standard) was determined by UPLC-MS/MS, after incubation of the compounds at 0, 30, 60, 120 and 240 min with rat plasma, and measuring the peak areas in three different experiments.
For analysis of plasma stability, 5 μL (250 ng mL^−1) of a concentrated solution of 10e (LASSBio-1736) or the positive control benzocaine (stock concentration = 10 000 ng mL^−1 solubilized in DMSO) was added in 195 μL of rat plasma solution (1 : 1) diluted with PBS (pH 7.4). […] The supernatant (400 μL) were placed in 2 mL vials, and analyzed by UPLC-MS/MS. […]
Detection in single reaction monitoring (SRM) mode was used for determination of the LASSBio-1736 (10e) m/z 419.1 → 205.0, benzocaine m/z 166.1 → 137.9 and ketoconazole (IS) 532.1 → 490.3, with a tolerance of mass deviation of 6 ppm, operating in positive ionization mode. The data were acquired using TraceFinder 3.2. software (Thermo Fisher Scientific, Waltham, USA), and analyzed using GraphPad Prism 5 program.

SMILES: O=C(N/N=C/c1ccc(C(F)(F)F)cc1)NNC(=O)c1ccc(Cl)cc1Cl [LASSBio-1736 (10e), 2,4-dichloro-phenylcarbamoyl-N-4-trifluoromethylphenylimine-urea]
- Serum levels of ALT, AST, creatinine and urea ([1]; after end of treatment, i.p.): did not significantly interfere
- Spleen weight ([1]; last day of treatment): did not alter animal's spleen weight
- Compound recovery after incubation with rat plasma [2]: completely recovered
